Experimental data reported in the NIST ThermoML archive (doi:10.1016/j.jct.2018.12.019).
± gives the expanded uncertainty stated by the source.

Tests used:
[1] = 98 kPa, Liquid; for speed of sound: Frequency=3 MHz, Single path-length method; for mass density: Vibrating tube method
[2] = xn = mol fraction of the nth substance listed; details: 98 kPa, Liquid, x2 = 0; for speed of sound: Frequency=3 MHz, Single path-length method; for mass density: Vibrating tube method
[3] = excess molar enthalpy (molar enthalpy of mixing); xn = mol fraction of the nth substance listed; details: 298.15 K; 98 kPa; Liquid; Calvet calorimetry; x2 = 0

CCO [ethanol]
[1]
Details | mass density [kg/m3] | speed of sound [m/s]
288.15 K | 793.68 ± 0.81 | 1176.9 ± 1.1
298.15 K | 785.14 ± 0.81 | 1142.7 ± 1.1
308.15 K | 776.48 ± 0.81 | 1108.8 ± 1.1
318.15 K | 767.68 ± 0.81 | 1075.2 ± 1.1
328.15 K | 758.65 ± 0.81 | 1041.9 ± 1.1

CO [methanol] + Cn1ccnc1
[2]
Details | mass density [kg/m3] | speed of sound [m/s]
288.15 K | 796.13 ± 0.81 | 1135.7 ± 1.1
298.15 K | 786.75 ± 0.81 | 1102.6 ± 1.1
308.15 K | 777.29 ± 0.81 | 1069.8 ± 1.1
318.15 K | 767.71 ± 0.81 | 1037.4 ± 1.1
328.15 K | 757.97 ± 0.81 | 1005.3 ± 1.1

CCO [ethanol] + Cn1ccnc1
[2]
Details | mass density [kg/m3] | speed of sound [m/s]
288.15 K | 793.68 ± 0.81 | 1176.9 ± 1.1
298.15 K | 785.14 ± 0.81 | 1142.7 ± 1.1
308.15 K | 776.48 ± 0.81 | 1108.8 ± 1.1
318.15 K | 767.68 ± 0.81 | 1075.2 ± 1.1
328.15 K | 758.65 ± 0.81 | 1041.9 ± 1.1

Details | excess molar enthalpy [kcal/mol]
[3] | 0 ± 0.000239

CC(C)O [propan-2-ol]
[1]
Details | mass density [kg/m3] | speed of sound [m/s]
288.15 K | 789.18 ± 0.81 | 1173.2 ± 1.1
298.15 K | 780.86 ± 0.81 | 1138.4 ± 1.1
308.15 K | 772.26 ± 0.81 | 1103.3 ± 1.1
318.15 K | 763.3 ± 0.81 | 1067.9 ± 1.1
328.15 K | 753.91 ± 0.81 | 1031.9 ± 1.1

O [water] + Cn1ccnc1
[2], 328.15 K
Details | mass density [kg/m3] | speed of sound [m/s]
– | 985.71 ± 0.8 | 1547.3 ± 1

Cn1ccnc1 [1-methylimidazole]
[1]
Details | mass density [kg/m3] | speed of sound [m/s]
288.15 K | 1039.36 ± 0.83 | 1634.1 ± 1.4
298.15 K | 1030.52 ± 0.83 | 1596.5 ± 1.4
308.15 K | 1021.66 ± 0.83 | 1559 ± 1.4
318.15 K | 1012.76 ± 0.83 | 1521.8 ± 1.4
328.15 K | 1003.83 ± 0.83 | 1485 ± 1.4

CCCO [propan-1-ol]
[1]
Details | mass density [kg/m3] | speed of sound [m/s]
288.15 K | 807.5 ± 0.81 | 1239.5 ± 1
298.15 K | 799.53 ± 0.81 | 1205.2 ± 1
308.15 K | 791.44 ± 0.81 | 1171.1 ± 1
318.15 K | 783.18 ± 0.81 | 1137.3 ± 1
328.15 K | 774.7 ± 0.81 | 1103.8 ± 1

CO [methanol]
[1]
Details | mass density [kg/m3] | speed of sound [m/s]
288.15 K | 796.13 ± 0.81 | 1135.7 ± 1.1
298.15 K | 786.75 ± 0.81 | 1102.6 ± 1.1
308.15 K | 777.29 ± 0.81 | 1069.8 ± 1.1
318.15 K | 767.71 ± 0.81 | 1037.4 ± 1.1
328.15 K | 757.97 ± 0.81 | 1005.3 ± 1.1

CC(C)O [propan-2-ol] + Cn1ccnc1
[2]
Details | mass density [kg/m3] | speed of sound [m/s]
288.15 K | 789.18 ± 0.81 | 1173.2 ± 1.1
298.15 K | 780.86 ± 0.81 | 1138.4 ± 1.1
308.15 K | 772.26 ± 0.81 | 1103.3 ± 1.1
318.15 K | 763.3 ± 0.81 | 1067.9 ± 1.1
328.15 K | 753.91 ± 0.81 | 1031.9 ± 1.1

Details | excess molar enthalpy [kcal/mol]
[3] | 0 ± 0.000239

CCCO [propan-1-ol] + Cn1ccnc1
[2]
Details | mass density [kg/m3] | speed of sound [m/s]
288.15 K | 807.5 ± 0.81 | 1239.5 ± 1
298.15 K | 799.53 ± 0.81 | 1205.2 ± 1
308.15 K | 791.44 ± 0.81 | 1171.1 ± 1
318.15 K | 783.18 ± 0.81 | 1137.3 ± 1
328.15 K | 774.7 ± 0.81 | 1103.8 ± 1

Details | excess molar enthalpy [kcal/mol]
[3] | 0 ± 0.000239
